Assay results from patent US7511144B2, “Reverse hydroxamic acid derivatives” (Kaken Pharmaceutical Co., Ltd., priority 2001, dated 2009).
Like-named read-outs stand apart in the source and are kept apart here.

How the values were obtained:
Assay type in all cases: biochemical
Human MMP13 = molecular target: T1, Human MMP13 (Homo sapiens, UniProt P45452); assay: MMP13 inhibition experiment; conditions: concentration required for 50% inhibition of enzyme activity; read-out: IC50 value MMP-13
T1 construct: purchased Chemicon CC068
Procedure: Human MMP13 (Chemicon #CC068) in amount of 90 μL (200 ng) was activated by mixing with 10 μL of 10 mM APMA, followed by reaction for 1 hour at 37° C. This enzyme solution in amount of 0.6 μL was diluted to 90 μL with the assay buffer A, which was added to 90 μL of 20 μM fluorescent substrate (Dnp-Pro-Cha-Gly-Cys(Me)-His-Ala-Lys(Nma)-NH2) prepared in the assay buffer B, followed by reaction for 4 hours at 37° C.

TACE = molecular target: T2, TACE (Homo sapiens, UniProt P78536); assay: TACE inhibition experiment (in vitro)
T2 construct: made in house; host or cells: mammalian cells or insect cells
T2 sequence (P78536 215-824): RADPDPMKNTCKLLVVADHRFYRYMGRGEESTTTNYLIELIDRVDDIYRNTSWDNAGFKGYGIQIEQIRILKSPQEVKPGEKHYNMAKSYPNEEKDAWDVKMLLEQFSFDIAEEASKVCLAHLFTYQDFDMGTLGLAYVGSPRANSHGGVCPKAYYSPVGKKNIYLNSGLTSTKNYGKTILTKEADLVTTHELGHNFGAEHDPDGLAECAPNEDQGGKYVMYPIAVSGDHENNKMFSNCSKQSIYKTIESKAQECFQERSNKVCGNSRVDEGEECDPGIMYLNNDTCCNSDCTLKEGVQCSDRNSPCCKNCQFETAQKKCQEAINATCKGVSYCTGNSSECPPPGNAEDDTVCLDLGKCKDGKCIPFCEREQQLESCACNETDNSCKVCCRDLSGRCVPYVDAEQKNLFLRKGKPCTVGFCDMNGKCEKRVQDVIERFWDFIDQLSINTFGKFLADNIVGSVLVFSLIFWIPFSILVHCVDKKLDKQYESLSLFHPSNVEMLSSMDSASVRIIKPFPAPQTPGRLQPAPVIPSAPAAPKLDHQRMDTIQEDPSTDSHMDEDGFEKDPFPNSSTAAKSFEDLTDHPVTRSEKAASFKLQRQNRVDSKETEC

Human MMP2 = molecular target: T3, Human MMP2 (Homo sapiens, UniProt P08253); assay: MMP2 inhibition experiment; conditions: concentration required for 50% inhibition of enzyme activity; read-out: IC50 value MMP-2
T3 construct: purchased Calbiochem 444213
T3 sequence (P08253 110-660): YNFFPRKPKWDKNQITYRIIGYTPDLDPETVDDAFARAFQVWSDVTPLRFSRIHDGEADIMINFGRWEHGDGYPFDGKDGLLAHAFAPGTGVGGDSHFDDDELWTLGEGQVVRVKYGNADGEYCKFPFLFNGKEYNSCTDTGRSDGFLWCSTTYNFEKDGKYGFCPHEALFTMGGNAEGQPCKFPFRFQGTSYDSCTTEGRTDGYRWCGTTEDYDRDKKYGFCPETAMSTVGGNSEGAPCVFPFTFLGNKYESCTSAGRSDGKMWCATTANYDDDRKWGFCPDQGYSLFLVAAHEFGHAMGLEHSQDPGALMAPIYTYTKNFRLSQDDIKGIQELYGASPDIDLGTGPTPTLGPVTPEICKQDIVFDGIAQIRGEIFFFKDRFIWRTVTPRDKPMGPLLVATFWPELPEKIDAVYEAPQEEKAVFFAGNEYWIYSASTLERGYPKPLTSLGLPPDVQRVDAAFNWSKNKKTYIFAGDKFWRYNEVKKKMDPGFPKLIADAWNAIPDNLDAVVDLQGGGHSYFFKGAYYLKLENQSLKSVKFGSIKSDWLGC
Procedure: This enzyme solution in amount of 10 μL was diluted to 90 μL with the assay buffer A, which was added to 90 μL of 20 μM fluorescent substrate (MOCAc((7-methoxycoumarin-4-yl)acetyl)-Pro-Leu-Gly-Leu-A2pr(Dnp)-Ala-Arg-NH2, Peptide Institute, Inc., #3163-v) prepared in the assay buffer B, followed by reaction for 5 hours at 37° C.

Human MMP1 = molecular target: T4, Human MMP1 (Homo sapiens, UniProt P03956); assay: MMP1 inhibition experiment; conditions: read-out: IC50 value MMP-1
T4 construct: purchased Calbiochem 444208
T4 sequence (P03956 100-469): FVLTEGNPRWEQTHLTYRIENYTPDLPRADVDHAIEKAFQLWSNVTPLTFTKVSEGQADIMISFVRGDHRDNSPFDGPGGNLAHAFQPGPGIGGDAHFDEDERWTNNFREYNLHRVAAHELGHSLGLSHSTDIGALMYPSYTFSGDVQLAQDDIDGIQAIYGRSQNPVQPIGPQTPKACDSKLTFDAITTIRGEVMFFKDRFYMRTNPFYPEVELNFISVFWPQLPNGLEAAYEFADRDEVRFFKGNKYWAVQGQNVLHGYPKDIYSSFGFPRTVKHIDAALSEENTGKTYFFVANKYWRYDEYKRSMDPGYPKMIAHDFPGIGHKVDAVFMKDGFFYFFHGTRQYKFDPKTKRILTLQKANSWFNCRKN
Procedure: This enzyme solution in amount of 10 μL was diluted to 90 μL with the assay buffer A, which was added to 90 μL of 20 μM fluorescent substrate (Dnp-Pro-Cha(β-cyclohexylalanyl)-Gly-Cys(Me)-His-Ala-Lys(Nma)-NH2) prepared in the assay buffer B, followed by reaction for 5 hours at 37° C.

Human MMP14 = molecular target: T5, Human MMP14 (Homo sapiens, UniProt P50281); assay: MMP14 inhibition experiment; conditions: concentration required for 50% inhibition of enzyme activity; read-out: IC50 value MMP-14
T5 construct: purchased Biogenesis or Calbiochem 5980-1461 or 475935
In short: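 Fluorescence assay: substrate Dnp-Pro-Cha-Gly-Cys(Me)-His-Ala-Lys(Nma)-NH2 (20 μM before equal-volume mixing) incubated at 37° C for 5 hours with 4 ng human MMP14.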

Human MMP8 = molecular target: T6, Human MMP8 (Homo sapiens, UniProt P22894); assay: MMP8 inhibition experiment; conditions: concentration required for 50% inhibition of enzyme activity; read-out: IC50 value MMP-8
T6 construct: purchased Calbiochem 444229
T6 sequence (P22894 101-467): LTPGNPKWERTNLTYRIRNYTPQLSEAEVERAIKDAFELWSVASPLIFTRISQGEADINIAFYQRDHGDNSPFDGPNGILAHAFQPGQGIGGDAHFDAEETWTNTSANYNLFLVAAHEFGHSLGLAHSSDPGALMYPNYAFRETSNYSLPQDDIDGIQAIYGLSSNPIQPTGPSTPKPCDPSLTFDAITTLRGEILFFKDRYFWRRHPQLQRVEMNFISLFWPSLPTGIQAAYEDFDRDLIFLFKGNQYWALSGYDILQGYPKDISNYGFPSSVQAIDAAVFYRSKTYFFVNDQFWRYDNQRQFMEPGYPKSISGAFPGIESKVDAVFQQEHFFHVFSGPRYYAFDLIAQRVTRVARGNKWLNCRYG
Procedure: MMP inhibition experiment may be carried out using a fluorescent synthetic substrate according to, for example, the methods of Bickett et al. (D. Mark Bickett et al., Anal. Biochem., 1993, 212, 58-64) and Nagase et al. (H. Nagase et al., J. Biol. Chem., 1994, 269, 20952-20957). The methods of inhibition experiments carried out for various MMPs are described below.
Human MMP8 (Calbiochem #444229) in amount of 90 μL (30 ng) was activated by mixing with 10 μL of 10 mM APMA, followed by reaction for 1 hour at 37° C. This enzyme solution in amount of 10 μL was diluted to 90 μL with the assay buffer A, which was added to 90 μL of […] fluorescent substrate (MOCAc-Pro-Leu-Gly-Leu-A2pr(Dnp)-Ala-Arg-NH2, Peptide Institute, Inc., #3163-v) prepared in the assay buffer B, followed by reaction for 5 hours at 37° C.

Human MMP3 = molecular target: T7, Human MMP3 (Homo sapiens, UniProt P08254); assay: MMP3 inhibition experiment; conditions: concentration required for 50% inhibition of enzyme activity; read-out: IC50 value MMP-3
T7 construct: purchased Calbiochem 444217
T7 sequence (P08254 100-272 limits assumed): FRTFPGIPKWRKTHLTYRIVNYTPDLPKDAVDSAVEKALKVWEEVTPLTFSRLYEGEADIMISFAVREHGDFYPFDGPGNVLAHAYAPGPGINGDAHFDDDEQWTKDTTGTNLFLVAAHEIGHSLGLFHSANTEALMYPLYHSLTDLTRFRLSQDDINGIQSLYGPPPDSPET
In short: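 Recombinant human MMP3 (5 ng) mixed with fluorogenic peptide NFF-3 (20 μM stock solution) and incubated 5 hours at 37° C; cleavage followed by fluorescence of the quenched substrate.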

Human MMP17 = molecular target: T8, Human MMP17 (Homo sapiens, UniProt Q9ULZ9); assay: MMP17 inhibition test; conditions: concentration required for 50% inhibition of enzyme activity; read-out: IC50 value MMP-17
T8 construct: purchased Calbiochem 475940
T8 sequence (Q9ULZ9 126-300 limits assumed): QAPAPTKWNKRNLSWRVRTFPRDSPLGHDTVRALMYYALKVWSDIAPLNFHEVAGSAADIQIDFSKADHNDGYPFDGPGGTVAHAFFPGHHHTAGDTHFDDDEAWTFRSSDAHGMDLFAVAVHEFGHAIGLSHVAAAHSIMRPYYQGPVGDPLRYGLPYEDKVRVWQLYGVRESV

Human MMP9 = molecular target: T9, Human MMP9 (Homo sapiens, UniProt P14780); assay: MMP9 inhibition experiment; conditions: read-out: IC50 value MMP-9
T9 construct: purchased Calbiochem 444231
T9 sequence (P14780 107-707 limits assumed): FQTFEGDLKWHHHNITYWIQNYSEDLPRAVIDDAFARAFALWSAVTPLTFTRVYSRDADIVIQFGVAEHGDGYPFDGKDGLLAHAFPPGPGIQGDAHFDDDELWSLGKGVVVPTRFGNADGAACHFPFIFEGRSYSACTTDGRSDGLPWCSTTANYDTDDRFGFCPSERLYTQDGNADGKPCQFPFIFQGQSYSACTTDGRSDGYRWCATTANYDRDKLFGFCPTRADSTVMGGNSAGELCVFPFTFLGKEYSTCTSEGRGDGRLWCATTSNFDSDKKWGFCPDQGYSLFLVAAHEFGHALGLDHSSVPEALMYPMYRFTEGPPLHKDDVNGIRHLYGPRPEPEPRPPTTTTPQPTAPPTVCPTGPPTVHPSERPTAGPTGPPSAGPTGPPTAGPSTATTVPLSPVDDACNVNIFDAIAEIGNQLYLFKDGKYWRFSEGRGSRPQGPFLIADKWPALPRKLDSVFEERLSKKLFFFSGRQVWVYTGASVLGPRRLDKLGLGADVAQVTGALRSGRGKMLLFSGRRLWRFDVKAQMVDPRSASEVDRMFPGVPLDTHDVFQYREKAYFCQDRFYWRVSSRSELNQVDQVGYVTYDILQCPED
Procedure: This enzyme solution in amount of 1 μL was diluted to 90 μL with the assay buffer A, which was added to 90 μL of 20 μM fluorescent substrate (Dnp-Pro-Cha-Gly-Cys(Me)-His-Ala-Lys(Nma)-NH2) prepared in the assay buffer B, followed by reaction for 4 hours at 37° C.

[1] = concentration required for 50% inhibition of enzyme activity

SMILES | IC50 (Human MMP13) [µM] | IC50 (TACE; [1]) [µM] | IC50 (Human MMP2) [µM] | IC50 (Human MMP1) [µM] | IC50 (Human MMP14) [µM] | IC50 (Human MMP8) [µM] | IC50 (Human MMP3) [µM] | IC50 (Human MMP17) [µM] | IC50 (Human MMP9; [1]) [µM] | IC50 (TACE) [µM] | IC50 (Human MMP9) [µM]
Cc1cc(COc2ccc(S(=O)(=O)CC(C=C3CCSCC3)N(O)C=O)cc2)c2ccccc2n1 (stereo not drawn) [Example I-17, N-Hydroxy-N-{2-[4-(2-methylquinolin-4-ylmethoxy)benzenesulfonyl]-1-(tetrahydrothiopyran-4-ylidenemethyl)ethyl}formamide] | 25 | 0.003 | 55 | 43 | 50 | > 100 | 10 | 4 | 31 |  | 
Cc1ccc2nc(C)cc(COc3ccc(S(=O)(=O)CC(C=C4CCC(=NO)CC4)N(O)C=O)cc3)c2c1 (stereo not drawn) [Example I-75] | 22 |  | 50 | 65 | 40 | 90 | 5.5 | 11 |  | 0.0041 | 35
Cc1cc(COc2ccc(S(=O)(=O)CC(N(O)C=O)C3(C)CCC(O)CC3)cc2)c2ccccc2n1 (stereo not drawn) [Example I-137] | 50 |  | > 100 | > 100 | > 100 | 23 | 3.2 | 0.9 |  | 0.024 | > 100
Cc1cc(COc2ccc(S(=O)(=O)CC(C=C3CCOCC3)N(O)C=O)cc2)cc(C)n1 (stereo not drawn) [Example I-115] | 8 |  | 4 | > 100 | > 100 | 6 | 40 | 42 |  | 0.14 | > 100
COc1ccc(C(=O)N2CCN(CC(CS(=O)(=O)c3ccc(OCc4cc(C)nc5ccccc45)cc3)N(O)C=O)CC2)cc1 (stereo not drawn) [Example I-54] | 23 |  | 12 | 70 | 43 | 42 | 1.2 | 0.85 |  | 0.008 | 31
Cc1cc(COc2ccc(S(=O)(=O)CC(C=C3CCN(C(=O)c4ccccc4)CC3)N(O)C=O)cc2)c2ccccc2n1 (stereo not drawn) [Example I-21] | 0.6 |  | 0.63 | 35 | 3.8 | 2.65 | 0.05 | 0.045 |  | 0.0022 | 9
COCc1cc(COc2ccc(S(=O)(=O)CC(C=C3CCC(=NO)CC3)N(O)C=O)cc2)cc(C)n1 (stereo not drawn) [Example I-120] | 62 |  | 22 | > 100 | > 100 | 27 | 68 | 33 |  | 0.11 | > 100
Cc1cc(COc2ccc(S(=O)(=O)CC(C=C3CCN(C(=O)OC(C)(C)C)CC3)N(O)C=O)cc2)c2ccccc2n1 (stereo not drawn) [Example I-18] | 3.5 |  | 3.3 | 65 | 20 | 24.5 | 0.65 | 0.6 |  | 0.004 | 10
COCc1cc(COc2ccc(S(=O)(=O)CC(C=C3CCC(=O)CC3)N(O)C=O)cc2)cc(C)n1 (stereo not drawn) [Example I-119] | 60 |  | 50 | > 100 | > 100 | 60 | > 100 | 58 |  | 0.32 | > 100
Cc1cccc(C(CS(=O)(=O)c2ccc(OCc3cc(C)nc4ccccc34)cc2)N(O)C=O)c1 (stereo not drawn) [Example I-22] | 21 |  | 40 | 60 | 42 | 59.5 | 7.3 | 3.5 |  | 0.0042 | 53
CCC(CC)C(=O)N1CCCC(C(CS(=O)(=O)c2ccc(OCc3cc(C)nc4ccccc34)cc2)N(O)C=O)C1 (stereo not drawn) [Example I-130] | 2.7 |  | 2.6 | 50 | 19 | 7 | 0.24 | 0.11 |  | 0.014 | 46
Cc1cc(COc2ccc(S(=O)(=O)CC(C=C3CCN(C(=O)C(C)(C)C)CC3)N(O)C=O)cc2)c2ccccc2n1 (stereo not drawn) [Example I-25, N-{1-[1-(2,2-Dimethylpropionyl)piperidin-4-ylidenemethyl]-2-[4-(2-methylquinolin-4-ylmethoxy)benzenesulfonyl]ethyl}-N-hyroxyformamide] | 0.7 |  | 1.3 | 40 | 20 | 5 | 0.11 | 0.12 |  | 0.01 | 8
Cc1ccc(C(CS(=O)(=O)c2ccc(OCc3cc(C)nc4ccccc34)cc2)N(O)C=O)cn1 (stereo not drawn) [Example I-32] | 9 |  | 18 | > 100 | 53 | 22 | 2.7 | 1.5 |  | 0.0025 | 44
CC(=C1CCOCC1)C(CS(=O)(=O)c1ccc(OCc2cc(C)nc3ccccc23)cc1)N(O)C=O (stereo not drawn) [Example I-15] | 30 |  | 38 | > 100 | 70 | 60 | 9 | 3.5 |  | 0.0055 | > 100
COCC(=O)N1CCN(CC(CS(=O)(=O)c2ccc(OCc3cc(C)nc4ccccc34)cc2)N(O)C=O)CC1 (stereo not drawn) [Example I-53] | 40 |  | 13 | > 100 | > 100 | 25 | 0.6 | 0.4 |  | 0.01 | > 100
Cc1cc(COc2ccc(S(=O)(=O)CC(CC3CCOCC3)N(O)C=O)cc2)c2ccccc2n1 (stereo not drawn) [Example I-29] | 18 |  | 19 | > 100 | 90 | 19 | 1.8 | 0.96 |  | 0.0076 | > 100
Cc1cc(COc2ccc(S(=O)(=O)CC(CN3CCN(S(C)(=O)=O)CC3)N(O)C=O)cc2)c2ccccc2n1 (stereo not drawn) [Example I-52] | 40 |  | 22 | > 100 | > 100 | 42 | 1 | 1.6 |  | 0.012 | > 100
